According to PubChem BioAssay AID248 (DTP/NCI, 2004):
Values joined by “and” are separate entries in the source; they are usually repeats but may differ in a detail not shown here. Equal entries are not always repeated. Toxic doses and inconclusive results are not listed.

Tested on: L1210 leukemia ip in BDF1 mice, survival T/C
Experiment: NCI In Vivo Anticancer Drug Screen. Data for tumor model L1210 Leukemia (intraperitoneal) in B6D2F1 (BDF1) mice
Conditions: endpoint: mean survival time, higher = longer survival
Summary of the method: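 Ratio derived from survival: compound-dosed mice over vehicle-dosed mice, all bearing a transplantable tumor.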

[1] = dose: 100.0 mg/kg/injection, schedule: Q01DX001 (ip), vehicle: saline
[2] = dose: 200.0 mg/kg/injection, schedule: Q01DX001 (ip), vehicle: saline
[3] = dose: 400.0 mg/kg/injection, schedule: Q01DX001 (ip), vehicle: saline
[4] = dose: 75.0 mg/kg/injection, schedule: Q01DX001 (ip), vehicle: other
[5] = dose: 100.0 mg/kg/injection, schedule: Q01DX009 (ip), vehicle: saline
[6] = dose: 100.0 mg/kg/injection, schedule: Q04DX003 (ip), vehicle: saline
[7] = dose: 200.0 mg/kg/injection, schedule: Q04DX003 (ip), vehicle: saline
[8] = dose: 400.0 mg/kg/injection, schedule: Q04DX003 (ip), vehicle: saline
[9] = dose: 100.0 mg/kg/injection, schedule: Q01DX001 (ip), vehicle: other
[10] = dose: 200.0 mg/kg/injection, schedule: Q01DX001 (ip), vehicle: other
[11] = dose: 400.0 mg/kg/injection, schedule: Q01DX001 (ip), vehicle: other

With C[C@]12CCC(=O)C=C1CC[C@@H]1[C@@H]2C(=O)C[C@]2(C)C3=CC(=O)O[C@H]3C[C@@H]12 the T/C (dose: 25.0 mg/kg/injection, schedule: Q01DX015 (sc), vehicle: steriod suspending solution) was 117 % of control, the T/C (dose: 50.0 mg/kg/injection, schedule: Q01DX015 (sc), vehicle: steriod suspending solution) was 102 % of control and the T/C (dose: 100.0 mg/kg/injection, schedule: Q01DX001 (sc), vehicle: steriod suspending solution) was 94 % of control. The T/C (dose: 100.0 mg/kg/injection, schedule: Q01DX015 (sc), vehicle: steriod suspending solution) was 102 % of control, the T/C (dose: 200.0 mg/kg/injection, schedule: Q01DX001 (sc), vehicle: steriod suspending solution) was 103 % of control and the T/C (dose: 200.0 mg/kg/injection, schedule: Q01DX015 (sc), vehicle: steriod suspending solution) was 91 % of control. The T/C (dose: 400.0 mg/kg/injection, schedule: Q01DX001 (sc), vehicle: steriod suspending solution) was 103 % of control, the T/C (dose: 400.0 mg/kg/injection, schedule: Q01DX015 (sc), vehicle: steriod suspending solution) was 97 % of control and the T/C (dose: 600.0 mg/kg/injection, schedule: Q01DX015 (sc), vehicle: steriod suspending solution) was 95 % of control.

For CSc1ccc(NC(=O)Nc2cc(C)ccc2N=Nc2ccc(C)cc2)cc1, the T/C (dose: 100.0 mg/kg/injection, schedule: Q01DX009 (ip), vehicle: other) was 89 % of control, the T/C (dose: 200.0 mg/kg/injection, schedule: Q01DX009 (ip), vehicle: other) was 102 % of control and the T/C (dose: 400.0 mg/kg/injection, schedule: Q01DX009 (ip), vehicle: other) was 96 % of control.

C(=C/c1ccnc(/C=C/c2ccccc2)c1)/c1ccccc1 was tested, and the T/C (dose: 25.0 mg/kg/injection, schedule: Q01DX009 (ip), vehicle: acetone) was 97 % of control and 99 % of control, the T/C (dose: 50.0 mg/kg/injection, schedule: Q01DX009 (ip), vehicle: acetone) was 87 % of control and the T/C [1] was 91 % of control. The T/C (dose: 100.0 mg/kg/injection, schedule: Q01DX009 (ip), vehicle: acetone) was 89 % of control and 92 % of control, the T/C (dose: 100.0 mg/kg/injection, schedule: Q04DX003 (ip), vehicle: acetone) was 94 % of control and the T/C [2] was 94 % of control. For the same molecule, the T/C (dose: 200.0 mg/kg/injection, schedule: Q04DX003 (ip), vehicle: acetone) was 86 % of control and the T/C [3] was 94 % of control.

In the case of c1ccc(C2(C3(c4ccccc4)SCCCS3)CN2)cc1 (stereo unspecified), the T/C (dose: 100.0 mg/kg/injection, schedule: Q01DX001 (ip), vehicle: Klucel (hydroxypropylcellulose) (HPC)) is reported as 101 % of control and the T/C (dose: 200.0 mg/kg/injection, schedule: Q01DX001 (ip), vehicle: Klucel (hydroxypropylcellulose) (HPC)) is reported as 97 % of control.

With O=S(=O)(O)C1(C(Cl)Cl)CCCCC1 (tested in a mixture with another compound) the T/C (dose: 9.0 mg/kg/injection, schedule: Q01DX001 (ip), vehicle: other) was 100 % of control, the T/C (dose: 18.0 mg/kg/injection, schedule: Q01DX001 (ip), vehicle: other) was 105 % of control and the T/C (dose: 37.0 mg/kg/injection, schedule: Q01DX001 (ip), vehicle: other) was 105 % of control. The T/C [4] was 104 % of control, the T/C (dose: 150.0 mg/kg/injection, schedule: Q01DX001 (ip), vehicle: other) was 111 % of control and the T/C (dose: 300.0 mg/kg/injection, schedule: Q01DX001 (ip), vehicle: other) was 115 % of control.

For COc1ccc(CC(N)C(=O)OCc2ccccc2)cc1N(CCCl)CCCl (stereo unspecified), the T/C (dose: 0.08 mg/kg/injection, schedule: Q01DX009 (ip), vehicle: saline) was 113 % of control, the T/C (dose: 0.15 mg/kg/injection, schedule: Q01DX009 (ip), vehicle: saline) was 118 % of control and the T/C (dose: 0.3 mg/kg/injection, schedule: Q01DX009 (ip), vehicle: saline) was 118 % of control. The T/C (dose: 0.75 mg/kg/injection, schedule: Q01DX001 (ip), vehicle: saline) was 110 % of control, the T/C (dose: 1.5 mg/kg/injection, schedule: Q01DX001 (ip), vehicle: saline) was 104 % of control and the T/C (dose: 6.0 mg/kg/injection, schedule: Q01DX009 (ip), vehicle: saline) was 93 % of control. The T/C (dose: 12.5 mg/kg/injection, schedule: Q01DX001 (ip), vehicle: saline) was 155 % of control.

OCC1OC(c2ccccc2)OC(CO)C(O)C1O (stereo unspecified) was tested, and the T/C (dose: 100.0 mg/kg/injection, schedule: Q04DX003 (ip), vehicle: saline with Tween-80) was 88 % of control and the T/C (dose: 200.0 mg/kg/injection, schedule: Q04DX003 (ip), vehicle: saline with Tween-80) was 88 % of control.

For CCSc1nc(N)c(Br)c(Sc2nc(N)nc3nc[nH]c23)n1, the T/C (dose: 100.0 mg/kg/injection, schedule: Q01DX Z (ip), vehicle: methylcellulose (MC)) was 98 % of control.

In the case of CN(C)C(=O)NNC(=O)N(C)C, the T/C [5] is reported as 103 % of control, the T/C [6] is reported as 94 % of control and the T/C (dose: 200.0 mg/kg/injection, schedule: Q01DX009 (ip), vehicle: saline) is reported as 95 % of control. The T/C [7] was 96 % of control, the T/C (dose: 400.0 mg/kg/injection, schedule: Q01DX009 (ip), vehicle: saline) was 95 % of control and the T/C [8] was 100 % of control.

With CC1(C)OCC(C(NC(=O)c2ccccc2)C(OC(=O)c2ccccc2)C2COC(C)(C)O2)O1 (stereo unspecified) the T/C (dose: 100.0 mg/kg/injection, schedule: Q04DX002 (ip), vehicle: Klucel (hydroxypropylcellulose) (HPC)) was 90 % of control, the T/C (dose: 200.0 mg/kg/injection, schedule: Q04DX002 (ip), vehicle: Klucel (hydroxypropylcellulose) (HPC)) was 90 % of control and the T/C (dose: 400.0 mg/kg/injection, schedule: Q04DX002 (ip), vehicle: Klucel (hydroxypropylcellulose) (HPC)) was 90 % of control.

For O=C(Nc1ccc(C2=NCCN2)cc1)c1c(F)c(F)c(C(=O)Nc2ccc(C3=NCCN3)cc2)c(F)c1F, the T/C (dose: 1.87 mg/kg/injection, schedule: Q01DX015 (ip), vehicle: methylcellulose (MC)) was 103 % of control, the T/C (dose: 3.75 mg/kg/injection, schedule: Q01DX015 (ip), vehicle: methylcellulose (MC)) was 101 % of control and the T/C (dose: 7.5 mg/kg/injection, schedule: Q01DX015 (ip), vehicle: methylcellulose (MC)) was 121 % of control. For the same molecule, the T/C (dose: 37.0 mg/kg/injection, schedule: Q01DX015 (ip), vehicle: methylcellulose (MC)) was 95 % of control.

For NC(N)=NN=C(c1ccc(F)cc1)c1ccc(F)cc1, the T/C (dose: 4.0 mg/kg/injection, schedule: Q01DX Z (oral), vehicle: carboxymethylcellulose (CMC)) was 111 % of control, the T/C (dose: 8.0 mg/kg/injection, schedule: Q01DX Z (oral), vehicle: carboxymethylcellulose (CMC)) was 104 % of control and the T/C (dose: 10.0 mg/kg/injection, schedule: Q01DX001 (ip), vehicle: carboxymethylcellulose (CMC)) was 100 % of control.

For CC(=O)OC1CCC(N)CC1 (stereo unspecified), the T/C [9] was 98 % of control, the T/C [10] was 96 % of control and the T/C [11] was 96 % of control.

For Cc1cc(=O)c2cc(Cc3ccc4[nH]c(C)cc(=O)c4c3)ccc2[nH]1, the T/C (dose: 50.0 mg/kg/injection, schedule: Q01DX009 (ip), vehicle: saline) was 91 % of control, the T/C [5] was 88 % of control and the T/C [6] was 94 % of control. For the same molecule, the T/C [7] was 94 % of control and the T/C [8] was 93 % of control.

With CCCCS/C=C1\CCC2(C)CCCCC2C1=O (stereo unspecified) the T/C (dose: 100.0 mg/kg/injection, schedule: Q04DX002 (ip), vehicle: saline with Tween-80) was 100 % of control, the T/C (dose: 200.0 mg/kg/injection, schedule: Q04DX002 (ip), vehicle: saline with Tween-80) was 100 % of control and the T/C (dose: 400.0 mg/kg/injection, schedule: Q04DX002 (ip), vehicle: saline with Tween-80) was 120 % of control.

With CC(=O)Nc1ccc(Cc2ccc(Br)cc2)cc1 the T/C [1] was 96 % of control and the T/C [2] was 106 % of control.

With O=C(CCl)c1ccc(O)c(O)c1 the T/C (dose: 6.25 mg/kg/injection, schedule: Q01DX009 (ip), vehicle: saline) was 94 % of control, the T/C (dose: 12.5 mg/kg/injection, schedule: Q01DX009 (ip), vehicle: saline) was 105 % of control and the T/C (dose: 33.0 mg/kg/injection, schedule: Q01DX001 (ip), vehicle: other) was 105 % of control. For the same molecule, the T/C (dose: 50.0 mg/kg/injection, schedule: Q01DX001 (ip), vehicle: other) was 108 % of control, the T/C [4] was 109 % of control and the T/C (dose: 112.0 mg/kg/injection, schedule: Q01DX001 (ip), vehicle: other) was 108 % of control.

In the case of COC(=O)C(O)(C#CC(C)C)c1ccccc1 (stereo unspecified), the T/C [9] is reported as 107 % of control, the T/C [10] is reported as 100 % of control and the T/C [11] is reported as 94 % of control.

For COc1ccc(C(O)CNC(=O)c2ccccc2)cc1 (stereo unspecified), the T/C (dose: 25.0 mg/kg/injection, schedule: Q04DX003 (ip), vehicle: Klucel (hydroxypropylcellulose) (HPC)) was 102 % of control, the T/C (dose: 50.0 mg/kg/injection, schedule: Q04DX003 (ip), vehicle: Klucel (hydroxypropylcellulose) (HPC)) was 97 % of control and the T/C [1] was 96 % of control. The T/C (dose: 100.0 mg/kg/injection, schedule: Q04DX003 (ip), vehicle: Klucel (hydroxypropylcellulose) (HPC)) was 87 % of control, the T/C [2] was 104 % of control and the T/C [3] was 98 % of control. The T/C (dose: 400.0 mg/kg/injection, schedule: Q04DX003 (ip), vehicle: Klucel (hydroxypropylcellulose) (HPC)) was 109 % of control.

With O=c1[nH]c(=S)nc2nc[nH]n12 the T/C [6] was 97 % of control, the T/C [7] was 102 % of control and the T/C [8] was 105 % of control.
